Experiment [1] relates to Ascaris-sensitized sheep. In words: Airway hyperresponsiveness to carbachol (post/pre challenge PC400 ratio), Example 3. The format is in vivo. As to the method:
Dose Response Curves to Inhaled Carbachol: For the carbachol dose response curves, measurements of SRL were repeated immediately after inhalation of buffer and after each administration of 10 breaths of increasing concentrations of carbachol solution (0.25%, 0.5%, 1.0%, 2.0% and 4.0% w/v). To assess airway responsiveness, the cumulative carbachol dose in breath units (BU) that increased SRL 400% over the post-buffer value (i.e. PC400) was calculated from the dose response curve. One breath unit was defined as one breath of a 1% w/v carbachol solution. The same basic protocol was used for all studies in Example 3. This basic protocol consisted of first obtaining baseline dose response curves to aerosol carbachol 1–3 days prior to antigen challenge. Then, on the day of antigen challenge, values of specific lung resistance (SRL) were measured at baseline and, then, 30 min after drug or vehicle (0.9% saline) treatment. The animals were, then, challenged with Ascaris suum antigen and SRL was remeasured immediately after challenge, hourly from 1–6 h after challenge and on the half-hour from 6 ½–8 h after challenge. Measurements of SRL were obtained 24 h after challenge followed by the 24 h post challenge dose response curve. Studies differed in time of treatment, treatment dose or route of administration. […] A second control challenge was done 2 weeks after the drug trial to insure that the 4 day treatment regimen had no carry-over effect. […] A second control challenge was done 2 weeks after the drug trial to insure that the 4 day treatment regimen had no carry-over effect. […] A second; control challenge was done 2 weeks after the drug trial to insure that the 4 day treatment regimen had no carry-over effect. […] Challenges were separated by 2 weeks. […] On the 15th day, the animals were treated and 30 min later, challenged with antigen. On the following day, after determining the post challenge PC400, the animals resumed treatment for another 14 days, after which, they were challenged with antigen (day 29). The animals were then left untreated for 14 days, after which an antigen challenge was conducted (day 43) and, then, this procedure was repeated after another 2 weeks (day 57). For each series, a repeated measures analysis of variance was performed to see if there were overall differences between the historical control the drug trial and the 2 week follow-up control or, in the case of experiments described in series 4 and 5, amongst the doses and different times, respectively. If a significant overall effect was found, then a two-tailed paired t-test were used to assess pairwise differences. The variables assessed were the peak early airway response (maximum increase in SRL 0–4 h after challenge), peak late airway response (maximum increase in SRL between 5–8 h after antigen challenge, irrespective of when this increase occurred for each sheep in each trial) and on the ratio of post challenge PC400 to pre challenge PC400. (Note: a ratio close to 1 indicates no airway hyperresponsiveness, whereas, a ratio close to 0.5 indicates the development of airway hyperresponsiveness.). Peak responses were used because they are the most conservative estimate of the overall effect. Values in the text and figures are mean±se for 3 sheep.

In experiment [2] the test system is IL-4. The following applies: Seggev J Immunol 150:62A; cited from earlier work.

Here are results for one compound from patent US7183112B2, “Uses for anti-malarial therapeutic agents” (APT Pharmaceuticals, LLC, priority 1999, dated 2007).

Molecules are shown by their SMILES.

As to `CCN(CCO)CCCC(C)Nc1ccnc2cc(Cl)ccc12` (stereo not drawn) [HCQ, hydroxychloroquine], in experiment [1] (aerosol 1 mg/kg twice a day for 4 days), the “effect on airway hyperresponsiveness (AHR)” value is “protection”. Moreover, the “effect on antigen-induced AHR” value is reported as “protection” in experiment [1] (aerosol 2 mg/kg once a day for 4 days); “protection” in experiment [1] (chronic treatment, aerosol 2 mg/kg once a day for up to 4 weeks); “protection” in experiment [1] (dose response, aerosol 0.2, 0.6 and 2 mg/kg once a day for 4 days); “did not protect” in experiment [1] (p.o. 1 mg/kg twice a day for 4 days). In addition, in experiment [2], the “effect on the actions of IL-4” value is given as “blocks”.
